In this test the target is T1, recombinant human GR (Homo sapiens, UniProt P04150).
T1 construct: purchased Panvera/Invitrogen P2812 (kit P2893)
T1 sequence (P04150 1-777): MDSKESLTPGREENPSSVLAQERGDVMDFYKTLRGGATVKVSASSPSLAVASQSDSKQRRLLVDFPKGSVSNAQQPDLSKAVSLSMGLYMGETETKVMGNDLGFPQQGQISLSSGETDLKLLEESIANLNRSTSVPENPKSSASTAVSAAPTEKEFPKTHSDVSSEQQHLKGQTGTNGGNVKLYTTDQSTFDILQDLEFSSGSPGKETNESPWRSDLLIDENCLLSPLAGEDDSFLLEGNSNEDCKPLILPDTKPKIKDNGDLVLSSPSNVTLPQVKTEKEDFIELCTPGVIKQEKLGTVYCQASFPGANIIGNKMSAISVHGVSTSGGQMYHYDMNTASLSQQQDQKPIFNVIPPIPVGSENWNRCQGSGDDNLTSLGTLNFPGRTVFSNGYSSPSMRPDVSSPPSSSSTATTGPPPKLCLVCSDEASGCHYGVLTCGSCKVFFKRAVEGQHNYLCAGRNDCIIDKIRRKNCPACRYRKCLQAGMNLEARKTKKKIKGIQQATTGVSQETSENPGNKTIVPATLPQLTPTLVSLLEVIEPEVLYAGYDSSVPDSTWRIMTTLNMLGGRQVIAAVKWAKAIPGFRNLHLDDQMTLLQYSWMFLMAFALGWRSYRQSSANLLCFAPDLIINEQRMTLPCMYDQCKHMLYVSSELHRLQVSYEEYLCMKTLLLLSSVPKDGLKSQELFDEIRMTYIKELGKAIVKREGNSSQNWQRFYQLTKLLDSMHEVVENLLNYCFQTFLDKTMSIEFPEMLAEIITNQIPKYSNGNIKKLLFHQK
Nature of the test: Human Glucocorticoid Receptor (GR) Assay, fluorescence polarization. The test is classed as binding. To be noted: GS Red tracer, incubated 2 h at r.t., XLfit model 205, read-out: GRhuFL_FP_v2 Mean IC50. The method in brief:
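Fluorescence polarization kit assay: recombinant GR and GS Red fluorescent ligand with Stabilizing Peptide and DTT in potassium phosphate/sodium molybdate/EDTA screening buffer. Plates incubated 2 h in the dark at r.t.; DMSO served as 0% and dexamethasone as 100% control.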
On the technique in general: Polarisation of emitted light reports the rotation of a fluorescent probe.

The term IC50 denotes the midpoint of a concentration-inhibition curve. As to `Cc1ccc([C@@H](Oc2ccc3c(cnn3-c3ccc(F)cc3)c2)[C@H](C)NC(=O)C(C)(C)C)cc1C` [Example 171, N-[(1R,2S)-1-(3,4-dimethylphenyl)-1-[1-(4-fluorophenyl)indazol-5-yl]oxy-propan-2-yl]-2,2-dimethyl-propanamide], the IC50 is 5.6 nM.

Take `C[C@H](NC(=O)C(C)(C)C)[C@H](Oc1ccc2c(cnn2-c2ccc(F)cc2)c1)c1ccc(F)c(F)c1` [Example 172, N-[(1R,2S)-1-(3,4-difluorophenyl)-1-[1-(4-fluorophenyl)indazol-5-yl]oxy-propan-2-yl]-2,2-dimethyl-propanamide]: the 50% inhibitory concentration (IC50) is 4.3 nM.

For `Cc1ccc([C@@H](Oc2ccc3c(cnn3-c3ccc(F)cc3)c2)[C@H](C)NC(=O)C(C)(C)C)cc1F` [Example 173, N-[(1R,2S)-1-(3-fluoro-4-methyl-phenyl)-1-[1-(4-fluorophenyl)indazol-5-yl]oxy-propan-2-yl]-2,2-dimethyl-propanamide], the IC50 was found to be 4.6 nM.

Consider `C[C@H](NC(=O)C(C)(C)C)[C@H](Oc1ccc2c(cnn2-c2ccc(F)cc2)c1)c1cccc(F)c1` [Example 174, N-[(1R,2S)-1-(3-fluorophenyl)-1-[1-(4-fluorophenyl)indazol-5-yl]oxy-propan-2-yl]-2,2-dimethyl-propanamide], for which the IC50 stood at 4.1 nM.

`Cc1ccc(C)c([C@@H](Oc2ccc3c(cnn3-c3ccc(F)cc3)c2)[C@H](C)NC(=O)C(C)(C)C)c1` [Example 175, N-[(1R,2S)-1-(2,5-dimethylphenyl)-1-[1-(4-fluorophenyl)indazol-5-yl]oxy-propan-2-yl]-2,2-dimethyl-propanamide]: the concentration for half-maximal inhibition (IC50) was found to be 4.3 nM.

As to `Cc1ccc([C@@H](Oc2ccc3c(cnn3-c3ccc(F)cc3)c2)[C@H](C)NC(=O)C(C)(C)C)c(C)c1` [Example 176, N-[(1R,2S)-1-(2,4-dimethylphenyl)-1-[1-(4-fluorophenyl)indazol-5-yl]oxy-propan-2-yl]-2,2-dimethyl-propanamide], the concentration for half-maximal inhibition (IC50) came to 4.9 nM.

Regarding `COc1ccc([C@@H](Oc2ccc3c(cnn3-c3ccc(F)cc3)c2)[C@H](C)NC(=O)C(C)(C)C)cc1F` [Example 177, N-[(1R,2S)-1-(3-fluoro-4-methoxy-phenyl)-1-[1-(4-fluorophenyl)indazol-5-yl]oxy-propan-2-yl]-2,2-dimethyl-propanamide], the IC50 came to 3.9 nM.

With `C[C@H](NC(=O)C(C)(C)C)[C@H](Oc1ccc2c(cnn2-c2ccc(F)cc2)c1)c1cccc(Cl)c1` [Example 178, N-[(1R,2S)-1-(3-chlorophenyl)-1-[1-(4-fluorophenyl)indazol-5-yl]oxy-propan-2-yl]-2,2-dimethyl-propanamide], the half-inhibitory concentration (IC50) turned out to be 3.9 nM.

Consider `Cc1cc(F)ccc1[C@@H](Oc1ccc2c(cnn2-c2ccc(F)cc2)c1)[C@H](C)NC(=O)C(C)(C)C` [Example 179, N-[(1R,2S)-1-(4-fluoro-2-methyl-phenyl)-1-[1-(4-fluorophenyl)indazol-5-yl]oxy-propan-2-yl]-2,2-dimethyl-propanamide], for which the half-inhibitory concentration (IC50) was 3.7 nM.

As for `Cc1ccc(F)cc1[C@@H](Oc1ccc2c(cnn2-c2ccc(F)cc2)c1)[C@H](C)NC(=O)C(C)(C)C` [Example 180, N-[(1R,2S)-1-(5-fluoro-2-methyl-phenyl)-1-[1-(4-fluorophenyl)indazol-5-yl]oxy-propan-2-yl]-2,2-dimethyl-propanamide], the IC50 amounted to 6.8 nM.

Turning to `COc1ccc(F)cc1[C@@H](Oc1ccc2c(cnn2-c2ccc(F)cc2)c1)[C@H](C)NC(=O)C(C)(C)C` [Example 181, N-[(1R,2S)-1-(5-fluoro-2-methoxy-phenyl)-1-[1-(4-fluorophenyl)indazol-5-yl]oxy-propan-2-yl]-2,2-dimethyl-propanamide], the IC50 is 3.2 nM.

`COc1c(C)cc([C@@H](Oc2ccc3c(cnn3-c3ccc(F)cc3)c2)[C@H](C)NC(=O)C(C)(C)C)cc1C` [Example 182, N-[(1R,2S)-1-[1-(4-fluorophenyl)indazol-5-yl]oxy-1-(4-methoxy-3,5-dimethyl-phenyl)propan-2-yl]-2,2-dimethyl-propanamide]: the half-inhibitory concentration (IC50) came out at 5.5 nM.

In the case of `C[C@H](NC(=O)C(C)(C)C)[C@H](Oc1ccc2c(cnn2-c2ccc(F)cc2)c1)c1ccc(Cl)cc1` [Example 183, N-[(1R,2S)-1-(4-chlorophenyl)-1-[1-(4-fluorophenyl)indazol-5-yl]oxy-propan-2-yl]-2,2-dimethyl-propanamide], the 50% inhibitory concentration (IC50) came to 4.6 nM.

As to `C[C@H](NC(=O)C(C)(C)C)[C@H](Oc1ccc2c(cnn2-c2ccc(F)cc2)c1)c1cc(F)cc(Cl)c1` [Example 184, N-[(1R,2S)-1-(3-chloro-5-fluoro-phenyl)-1-[1-(4-fluorophenyl)indazol-5-yl]oxy-propan-2-yl]-2,2-dimethyl-propanamide], the half-maximal inhibitory concentration (IC50) amounted to 5.1 nM.

On to `Cc1cccc([C@@H](Oc2ccc3c(cnn3-c3ccc(F)cc3)c2)[C@H](C)NC(=O)C(C)(C)C)c1` [Example 185, N-[(1R,2S)-1-[1-(4-fluorophenyl)indazol-5-yl]oxy-1-(3-methylphenyl)propan-2-yl]-2,2-dimethyl-propanamide], for which the half-inhibitory concentration (IC50) turned out to be 5.5 nM.

Regarding `C[C@H](NC(=O)C(C)(C)C)[C@H](Oc1ccc2c(cnn2-c2ccc(F)cc2)c1)c1ccc(C(C)(C)C)cc1` [Example 186, N-[(1R,2S)-1-[1-(4-fluorophenyl)indazol-5-yl]oxy-1-(4-tert-butylphenyl)propan-2-yl]-2,2-dimethyl-propanamide], the IC50 was 6.6 nM.

`COc1ccccc1[C@@H](Oc1ccc2c(cnn2-c2ccc(F)cc2)c1)[C@H](C)NC(=O)C(C)(C)C` [Example 187, N-[(1R,2S)-1-[1-(4-fluorophenyl)indazol-5-yl]oxy-1-(2-methoxyphenyl)propan-2-yl]-2,2-dimethyl-propanamide]: the IC50 amounted to 4.5 nM.

For `CCCc1ccc([C@@H](Oc2ccc3c(cnn3-c3ccc(F)cc3)c2)[C@H](C)NC(=O)C(C)(C)C)cc1` [Example 188, N-[(1R,2S)-1-[1-(4-fluorophenyl)indazol-5-yl]oxy-1-(4-propylphenyl)propan-2-yl]-2,2-dimethyl-propanamide], the IC50 was 7.3 nM.

Take `C[C@H](NC(=O)C(C)(C)C)[C@H](Oc1ccc2c(cnn2-c2ccc(F)cc2)c1)c1ccc2c(c1)OCO2` [Example 189, N-[(1R,2S)-1-benzo[1,3]dioxol-5-yl-1-[1-(4-fluorophenyl)indazol-5-yl]oxy-propan-2-yl]-2,2-dimethyl-propanamide]: the IC50 turned out to be 7.8 nM.

Turning to `Cc1c(F)cccc1[C@@H](Oc1ccc2c(cnn2-c2ccc(F)cc2)c1)[C@H](C)NC(=O)C(C)(C)C` [Example 190, N-[(1R,2S)-1-(3-fluoro-2-methyl-phenyl)-1-[1-(4-fluorophenyl)indazol-5-yl]oxy-propan-2-yl]-2,2-dimethyl-propanamide], the concentration for half-maximal inhibition (IC50) came to 4.5 nM.

For the compound `Cc1cc([C@@H](Oc2ccc3c(cnn3-c3ccc(F)cc3)c2)[C@H](C)NC(=O)C(C)(C)C)ccc1Cl` [Example 191, N-[(1R,2S)-1-(4-chloro-3-methyl-phenyl)-1-[1-(4-fluorophenyl)indazol-5-yl]oxy-propan-2-yl]-2,2-dimethyl-propanamide], the concentration for half-maximal inhibition (IC50) is 5.9 nM.

Turning to `Cc1cnc(C(=O)N[C@@H](C)[C@H](Oc2ccc3c(cnn3-c3ccc(F)cc3)c2)c2ccc(C)c(C)c2)s1` [Example 192, N-[(1R,2S)-1-(3,4-dimethylphenyl)-1-[1-(4-fluorophenyl)indazol-5-yl]oxy-propan-2-yl]-5-methyl-1,3-thiazole-2-carboxamide], the IC50 worked out at 4.3 nM.

With `Cc1cnc(C(=O)N[C@@H](C)[C@H](Oc2ccc3c(cnn3-c3ccc(F)cc3)c2)c2ccc(F)c(F)c2)s1` [Example 193, N-[(1R,2S)-1-(3,4-difluorophenyl)-1-[1-(4-fluorophenyl)indazol-5-yl]oxy-propan-2-yl]-5-methyl-1,3-thiazole-2-carboxamide], the 50% inhibitory concentration (IC50) came out at 6.5 nM.

As for `Cc1cnc(C(=O)N[C@@H](C)[C@H](Oc2ccc3c(cnn3-c3ccc(F)cc3)c2)c2ccc(C)c(F)c2)s1` [Example 194, N-[(1R,2S)-1-(3-fluoro-4-methyl-phenyl)-1-[1-(4-fluorophenyl)indazol-5-yl]oxy-propan-2-yl]-5-methyl-1,3-thiazole-2-carboxamide], the IC50 came out at 3.9 nM.

Turning to `Cc1cnc(C(=O)N[C@@H](C)[C@H](Oc2ccc3c(cnn3-c3ccc(F)cc3)c2)c2cccc(F)c2)s1` [Example 195, N-[(1R,2S)-1-(3-fluorophenyl)-1-[1-(4-fluorophenyl)indazol-5-yl]oxy-propan-2-yl]-5-methyl-1,3-thiazole-2-carboxamide], the half-maximal inhibitory concentration (IC50) came to 3.3 nM.

For `Cc1ccc(C)c([C@@H](Oc2ccc3c(cnn3-c3ccc(F)cc3)c2)[C@H](C)NC(=O)c2ncc(C)s2)c1` [Example 196, N-[(1R,2S)-1-(2,5-dimethylphenyl)-1-[1-(4-fluorophenyl)indazol-5-yl]oxy-propan-2-yl]-5-methyl-1,3-thiazole-2-carboxamide], the IC50 amounted to 6.2 nM.
